The results in this text go back to US5409932A, “Piperazine-substituted pyrroloanthracenes” (Bayer AG, priority 1993, dated 1995).

This test has as its system human T cells. The experiment in a line: Inhibition of 5-HT-dependent T Cell Proliferation. In kind it is cell-based. The conditions noted are these: monocyte-free human T cells stimulated with PWM and 5-HT, 3H-thymidine incorporation, 7 days. From the text:
The in vitro activity of the compounds according to the invention results from their capability to inhibit T cell proliferation, which is previously stimulated by serotonin.
Inhibition of 5-HT-dependent T Cell Proliferation
Peripheral mononuclear blood cells (PBMC) are obtained from the buffy coat of the blood of healthy subjects. After isolation by means of isolymph gradients (Pharmacia), the PBMC are washed twice and used directly. Purified T cells are obtained by E rosette formation with sheep erythrocytes [cf. Blue, M.-L. , J. F. Daley, H. Levine, K. A. Craig and S. F. Schlossmann, 1986, Biosynthesis and surface expression of T8 by peripheral blood T4+cells in vitro, J. Immunol. 137, 1202]. Monocytes are partially removed by adhesion to tissue culture plates or flasks. PBMC, T cells or purified T cells (depleted in monocytes) at 5×10^5 /ml, 100 μl/well are cultured in RPMI 1640 medium with 10% fetal calf serum (GIBCO) and L-glutamine in 96-well microculture plates (Becton--Dickinson)under a 5% CO2 atmosphere at 37° C. for 7 days. The cultures are treated with 1 μCi of ^3 H-thymidine for 6 h on the 7th day and collected on filter paper, and the incorporated radioactivity is determined by means of liquid scintillation counting.
The test substances are dissolved in 10 mM HCl in order to achieve a final concentration of 1 mM in each case. The compounds are diluted serially 3×with medium in order to obtain a final concentration between 33 μM-0.1 μM. PWM (1:200, pokeweed mitogen) and 5-HT (100 μm, serotonin), which contain the test substances, are added to monocyte-free human T cells. The positive control (maximum proliferation) is obtained from cultures containing T cells, PWM and 5-HT. The negative control (minimal proliferation) is obtained from cultures containing T cells and PWM without 5-HT. The inhibitory activity of the test substances is expressed as the IC50 in μM. (see also WO 92/04015)

pIC50: −log10 of the molar value. Where only a bound is given, the exact number is not on record here.

As for `O=C1C2C3c4ccccc4C(c4ccccc43)C2C(=O)N1CCCN1CCN(c2ccc(F)cc2)CC1` (centres unmarked) [Example 1, 13-{3-[4-(4-Fluorophenyl)piperazin-1-yl]-propyl}-9,10-dihydro-9,10[3', 4']-pyrroloanthracene-12,14(11H,15H) dione], the pIC50 (Homo sapiens, T-cell) is < 5.00.
Take `O=C1C2C3c4ccccc4C(c4ccccc43)C2C(=O)N1CCN1CCN(c2ccccc2)CC1` (centres unmarked) [Example 3]: the negative logarithm of the IC50 (pIC50) (Homo sapiens, T-cell) was < 5.00.
On the same count and under the same terms, the figure for `O=C1C2C3c4ccccc4C(c4ccccc43)C2C(=O)N1CCCCN1CCN(c2ccccc2)CC1` (centres unmarked) [Example 4] is 5.30; for `O=C1C2C3c4ccccc4C(c4ccccc43)C2C(=O)N1CCCCN1CCN(c2ccc(F)cc2)CC1` (centres unmarked) [Example 5] it is < 5.00; for `O=C1C2C3c4ccccc4C(c4ccccc43)C2C(=O)N1CCCCN1CCN(c2ccccc2F)CC1` (centres unmarked) [Example 6] it is < 5.00.
Consider `O=C1C2C3c4ccccc4C(c4ccccc43)C2C(=O)N1CCCN1CCN(c2ccccc2)CC1` (centres unmarked) [Example 7], for which the pIC50 (Homo sapiens, T-cell) was < 5.00.
Consider `Cc1ccccc1N1CCN(CCCCN2C(=O)C3C4c5ccccc5C(c5ccccc54)C3C2=O)CC1` (centres unmarked) [Example 8], for which the pIC50 (Homo sapiens, T-cell) was < 5.00.
Take `O=C1C2C3c4ccccc4C(c4ccccc43)C2C(=O)N1CCCN1CCN(c2ccc(C(F)(F)F)cc2)CC1` (centres unmarked) [Example 10]: where the note is “Homo sapiens, T-cell”, the pIC50 was < 5.00.
Same read-out and setting: in the case of `COc1ccc(N2CCN(CCCN3C(=O)C4C5c6ccccc6C(c6ccccc65)C4C3=O)CC2)cc1` (centres unmarked) [Example 12] it was < 5.00; in that of `O=C1C2C3c4ccccc4C(c4ccccc43)C2C(=O)N1CCCN1CCN(c2cccc(Cl)c2)CC1` (centres unmarked) [Example 13], < 5.00; in that of `Cc1cccc(N2CCN(CCCN3C(=O)C4C5c6ccccc6C(c6ccccc65)C4C3=O)CC2)c1` (centres unmarked) [Example 14], < 5.00.
On the same count and under the same terms, the figure for `O=C1C2C3c4ccccc4C(c4ccccc43)C2C(=O)N1CCCN1CCN(c2cccc(C(F)(F)F)c2)CC1` (centres unmarked) [Example 15] is < 5.00; for `COc1cccc(N2CCN(CCCN3C(=O)C4C5c6ccccc6C(c6ccccc65)C4C3=O)CC2)c1` (centres unmarked) [Example 16] it is < 5.00.
On the same count and under the same terms, in the case of `O=C1C2C3c4ccccc4C(c4ccccc43)C2C(=O)N1CCCN1CCN(c2ccccc2Cl)CC1` (centres unmarked) [Example 17] it was < 5.00; in that of `O=C1C2C3c4ccccc4C(c4ccccc43)C2C(=O)N1CCCN1CCN(c2ccccc2F)CC1` (centres unmarked) [Example 18], < 5.00; in that of `Cc1ccccc1N1CCN(CCCN2C(=O)C3C4c5ccccc5C(c5ccccc54)C3C2=O)CC1` (centres unmarked) [Example 19], < 5.00.
Take `CCc1ccccc1N1CCN(CCCN2C(=O)C3C4c5ccccc5C(c5ccccc54)C3C2=O)CC1` (centres unmarked) [Example 20]: the pIC50 (Homo sapiens, T-cell) was < 5.00.
Still for that read-out and setting: the figure for `COc1ccccc1N1CCN(CCCN2C(=O)C3C4c5ccccc5C(c5ccccc54)C3C2=O)CC1` (centres unmarked) [Example 21] is < 5.00; for `CCOc1ccccc1N1CCN(CCCN2C(=O)C3C4c5ccccc5C(c5ccccc54)C3C2=O)CC1` (centres unmarked) [Example 22] it is < 5.00; for `Cc1cccc(C)c1N1CCN(CCCN2C(=O)C3C4c5ccccc5C(c5ccccc54)C3C2=O)CC1` (centres unmarked) [Example 23] it is < 5.00.
The same measure, in the same setting: the figure for `Cc1ccc(N2CCN(CCCN3C(=O)C4C5c6ccccc6C(c6ccccc65)C4C3=O)CC2)c(C)c1` (centres unmarked) [Example 25] is < 5.00; for `COc1ccc(N2CCN(CCCN3C(=O)C4C5c6ccccc6C(c6ccccc65)C4C3=O)CC2)cc1OC` (centres unmarked) [Example 28] it is < 5.00.
On the same count and under the same terms, in the case of `CC12c3ccccc3C(c3ccccc31)C1C(=O)N(CCCN3CCN(c4ccc(F)cc4)CC3)C(=O)C12` (centres unmarked) [Example 31] it was < 5.00.
Turning to `O=C1C2C3c4ccccc4C(CO)(c4ccccc43)C2C(=O)N1CCCN1CCN(c2ccccc2)CC1` (centres unmarked) [Example 32], for the setting “Homo sapiens, T-cell”, the pIC50 is < 5.00.
Same read-out and setting: in the case of `O=C1C2C3c4ccccc4C(Cl)(c4ccccc43)C2C(=O)N1CCCN1CCN(c2ccccc2)CC1` (centres unmarked) [Example 34] it was < 5.00.
The same measure, in the same setting: in the case of `O=C1C2C3c4ccccc4C(Cl)(c4ccccc43)C2C(=O)N1CCCN1CCN(c2ccc(F)cc2)CC1` (centres unmarked) [Example 35] it was < 5.00.
Same read-out and setting: in the case of `N#CC12c3ccccc3C(c3ccccc31)C1C(=O)N(CCCN3CCN(c4ccc(F)cc4)CC3)C(=O)C12` (centres unmarked) [Example 36] it was < 5.00.
With `C=CC12c3ccccc3C(c3ccccc31)C1C(=O)N(CCCN3CCN(c4ccc(F)cc4)CC3)C(=O)C12` (centres unmarked) [Example 37], the pIC50 (Homo sapiens, T-cell) was < 5.00.
On the same count and under the same terms, the figure for `O=C1C2C3c4ccccc4C(C=Cc4ccccc4)(c4ccccc43)C2C(=O)N1CCCN1CCN(c2ccc(F)cc2)CC1` (centres unmarked) [Example 38] is < 5.00.
Take `CC12c3ccccc3C(C)(c3ccccc31)C1C(=O)N(CCCN3CCN(c4ccc(F)cc4)CC3)C(=O)C12` (centres unmarked) [Example 44]: the pIC50 is < 5.00.
Regarding `O=C1C2C(C(=O)N1CCCN1CCN(c3ccc(F)cc3)CC1)C1(Br)c3ccccc3C2(Br)c2ccccc21` (centres unmarked) [Example 45], for the setting “Homo sapiens, T-cell”, the pIC50 was < 5.00.
Take `O=C1C2C3c4ccccc4C(CCl)(c4ccccc43)C2C(=O)N1CCCN1CCN(c2ccc(F)cc2)CC1` (centres unmarked) [Example 48]: the pIC50 (Homo sapiens, T-cell) was 5.00.
Still for that read-out and setting: the figure for `O=C1C2C3c4ccccc4C(c4ccccc4)(c4ccccc43)C2C(=O)N1CCCN1CCN(c2ccc(F)cc2)CC1` (centres unmarked) [Example 49] is < 4.30.
On the same count and under the same terms, in the case of `O=C1N(CCCN2CCN(c3ccc(F)cc3)CC2)C(=O)C2(Cl)C3c4ccccc4C(c4ccccc43)C12Cl` (centres unmarked) [Example 51] it was 4.30.
Still for that read-out and setting: the figure for `Clc1ccccc1N1CCN(CCCCN2CC3C4c5ccccc5C(c5ccccc54)C3C2)CC1` (centres unmarked) [Example 65] is 6.30; for `Clc1cccc(N2CCN(CCCCN3CC4C5c6ccccc6C(c6ccccc65)C4C3)CC2)c1` (centres unmarked) [Example 66] it is 5.70.
Regarding `Clc1ccc(N2CCN(CCCCN3CC4C5c6ccccc6C(c6ccccc65)C4C3)CC2)cc1` (centres unmarked) [Example 67], the pIC50 (Homo sapiens, T-cell) was 5.70.
`Clc1ccc(N2CCN(CCCCN3CC4C5c6ccccc6C(c6ccccc65)C4C3)CC2)cc1Cl` (centres unmarked) [Example 68]: under “Homo sapiens, T-cell”, the pIC50 was 5.30.
Same read-out and setting: in the case of `Fc1ccc(N2CCN(CCCCN3CC4C5c6ccccc6C(c6ccccc65)C4C3)CC2)cc1` (centres unmarked) [Example 69] it was 6.22; in that of `COc1ccc(N2CCN(CCCCN3CC4C5c6ccccc6C(c6ccccc65)C4C3)CC2)cc1` (centres unmarked) [Example 70], 6.30.
On the same count and under the same terms, in the case of `FC(F)(F)c1ccc(N2CCN(CCCCN3CC4C5c6ccccc6C(c6ccccc65)C4C3)CC2)cc1` (centres unmarked) [Example 73] it was 5.70; in that of `FC(F)(F)c1ccc(N2CCN(CCCN3CC4C5c6ccccc6C(c6ccccc65)C4C3)CC2)cc1` (centres unmarked) [Example 75], 5.70.
Still for that read-out and setting: in the case of `Cc1ccc(N2CCN(CCCN3CC4C5c6ccccc6C(c6ccccc65)C4C3)CC2)cc1` (centres unmarked) [Example 76] it was 5.70; in that of `COc1ccc(N2CCN(CCCN3CC4C5c6ccccc6C(c6ccccc65)C4C3)CC2)cc1` (centres unmarked) [Example 77], 5.15; in that of `Clc1cccc(N2CCN(CCCN3CC4C5c6ccccc6C(c6ccccc65)C4C3)CC2)c1` (centres unmarked) [Example 78], 5.30.
For `Cc1cccc(N2CCN(CCCN3CC4C5c6ccccc6C(c6ccccc65)C4C3)CC2)c1` (centres unmarked) [Example 79], the pIC50 (Homo sapiens, T-cell) is 6.00.
Take `FC(F)(F)c1cccc(N2CCN(CCCN3CC4C5c6ccccc6C(c6ccccc65)C4C3)CC2)c1` (centres unmarked) [Example 80]: the pIC50 (Homo sapiens, T-cell) was 5.30.
Still for that read-out and setting: in the case of `Fc1ccccc1N1CCN(CCCN2CC3C4c5ccccc5C(c5ccccc54)C3C2)CC1` (centres unmarked) [Example 83] it was 5.15; in that of `Cc1ccccc1N1CCN(CCCN2CC3C4c5ccccc5C(c5ccccc54)C3C2)CC1` (centres unmarked) [Example 84], 5.70; in that of `CCc1ccccc1N1CCN(CCCN2CC3C4c5ccccc5C(c5ccccc54)C3C2)CC1` (centres unmarked) [Example 85], 5.52.
The same measure, in the same setting: in the case of `COc1ccccc1N1CCN(CCCN2CC3C4c5ccccc5C(c5ccccc54)C3C2)CC1` (centres unmarked) [Example 86] it was 5.52; in that of `Cc1ccc(N2CCN(CCCN3CC4C5c6ccccc6C(c6ccccc65)C4C3)CC2)cc1C` (centres unmarked) [Example 92], 5.70.
Same read-out and setting: the figure for `COc1ccc(N2CCN(CCCN3CC4C5c6ccccc6C(c6ccccc65)C4C3)CC2)cc1OC` (centres unmarked) [Example 93] is 5.00.
Regarding `CC12c3ccccc3C(c3ccccc31)C1CN(CCCN3CCN(c4ccccc4)CC3)CC12` (centres unmarked) [Example 94], the pIC50 (Homo sapiens, T-cell) is 5.15.
On the same count and under the same terms, the figure for `CC12c3ccccc3C(c3ccccc31)C1CN(CCCN3CCN(c4ccc(Cl)cc4)CC3)CC12` (centres unmarked) [Example 95] is 5.30; for `CC12c3ccccc3C(c3ccccc31)C1CN(CCCN3CCN(c4ccc(F)cc4)CC3)CC12` (centres unmarked) [Example 96] it is < 5.00; for `OCC12c3ccccc3C(c3ccccc31)C1CN(CCCN3CCN(c4ccccc4)CC3)CC12` (centres unmarked) [Example 97] it is 5.00.
The same measure, in the same setting: the figure for `OCC12c3ccccc3C(c3ccccc31)C1CN(CCCN3CCN(c4ccc(F)cc4)CC3)CC12` (centres unmarked) [Example 98] is 5.00.
Same read-out and setting: in the case of `ClC12c3ccccc3C(c3ccccc31)C1CN(CCCN3CCN(c4ccccc4)CC3)CC12` (centres unmarked) [Example 99] it was 5.10.
